The results in this text go back to US8198273B2, “Compounds and methods for kinase modulation, and indications therefor” (Plexxikon Inc., priority 2009, dated 2012).

The target of one data set is CYP2C9 (Homo sapiens, UniProt P11712). Kind of data set: CYP2C9 inhibition (fluorescent substrate). It counts as in vitro ADME. The settings on record: CYP2C9, MFC substrate; read-out: Cyp IC50 2C9. The gist of the method: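 IC50 values come from plotting product fluorescence against compound concentration; inhibition lowers formation of the fluorescent metabolite. Ten-point twofold dilutions in co-factor mix were held 10 minutes at 37 °C before the enzyme reaction, also run at 37 °C.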

Data set [1] can be described thus: Relative solubility by turbidity in aqueous buffers of varying pH. It counts as physicochemical. The settings on record: for turbidity threshold (L, M, H) 7.4: HEPES pH 7.4; for turbidity threshold (L, M, H) 4.5: SIF pH 4.5; for turbidity threshold (L, M, H) 6.8: SIF pH 6.8; for turbidity threshold (L, M, H) 1.4: buffer pH 1.4 (SGF). The gist of the method:
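Turbidity endpoint: concentration where optical density at 490, 535 and 650 nm exceeds 0.01, three-wavelength average used. Buffers at pH 1.5, 4.5, 6.8 and 7.4; DMSO serial dilutions of 25 mM stock spiked 1 μL into 99 μL buffer. Low <31.3, moderate 31.3–250, high >250 μM.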

For data set [2], the system named is COLO205 colon adenocarcinoma cells (B-Raf V600E). Nature of the data set: COLO205 cell growth inhibition (ATPlite). It counts as cell-based. The settings on record: Homo sapiens, COLO 205, 72 h; COLO205, 3 days incubation. The gist of the method:
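Cells plated overnight, then exposed 3 days at 37° C to 8-point 1:3 compound dilutions topping at 10 μM final. Viability read as ATPlite luminescence, proportional to cell number; IC50 from luminescence versus concentration.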

CYP2C9, sequence (P11712 whole entry): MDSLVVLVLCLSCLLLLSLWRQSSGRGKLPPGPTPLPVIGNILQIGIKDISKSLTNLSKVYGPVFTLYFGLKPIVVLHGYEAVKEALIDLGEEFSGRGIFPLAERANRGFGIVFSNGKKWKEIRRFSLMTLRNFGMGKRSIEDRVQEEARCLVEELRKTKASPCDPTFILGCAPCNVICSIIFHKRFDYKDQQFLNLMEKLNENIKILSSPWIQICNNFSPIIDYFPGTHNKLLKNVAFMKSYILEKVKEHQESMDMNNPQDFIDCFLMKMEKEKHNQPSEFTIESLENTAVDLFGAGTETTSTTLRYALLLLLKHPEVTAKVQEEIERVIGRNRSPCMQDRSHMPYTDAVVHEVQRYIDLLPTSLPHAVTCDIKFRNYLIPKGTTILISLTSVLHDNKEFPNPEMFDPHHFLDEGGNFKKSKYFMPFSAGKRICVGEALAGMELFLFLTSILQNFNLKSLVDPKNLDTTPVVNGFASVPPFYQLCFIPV

As for `O=C(c1c(F)ccc(NS(=O)(=O)c2cc(F)ccc2F)c1F)c1c[nH]c2nccc(Cl)c12` [P-2018, N-[3-(4-Chloro-1H-pyrrolo[2,3-b]pyridine-3-carbonyl)-2,4-difluoro-phenyl]-2,5-difluoro-benzenesulfonamide], the IC50 at CYP2C9 is more than 10 µM. Besides, in data set [1], the “turbidity threshold (L, M, H) 7.4” value is on record as “M (moderate solubility if the threshold concentration is 31.3 μM to 250 μM)”; the “turbidity threshold (L, M, H) 4.5” value is given as “M (moderate solubility if the threshold concentration is 31.3 μM to 250 μM)”; the “turbidity threshold (L, M, H) 6.8” value is listed as “M (moderate solubility if the threshold concentration is 31.3 μM to 250 μM)”; the “turbidity threshold (L, M, H) 1.4” value is reported as “L (low solubility if the threshold concentration is <31.3 04)”. For the same molecule, the IC50 in data set [2] was less than 5 µM.

For `CCCS(=O)(=O)Nc1ccc(F)c(C(=O)c2c[nH]c3ncc(-c4cncnc4)cc23)c1F` [P-2162, Propane-1-sulfonic acid [2,4-difluoro-3-(5-pyrimidin-5-yl-1H-pyrrolo[2,3-b]pyridine-3-carbonyl)-phenyl]-amide], at CYP2C9, the IC50 fell in the range of 5 to 10 µM. Further, in data set [1], the “turbidity threshold (L, M, H) 7.4” value is given as “M (moderate solubility if the threshold concentration is 31.3 μM to 250 μM)”; the “turbidity threshold (L, M, H) 4.5” value is “M (moderate solubility if the threshold concentration is 31.3 μM to 250 μM)”; the “turbidity threshold (L, M, H) 6.8” value is “M (moderate solubility if the threshold concentration is 31.3 μM to 250 μM)”; the “turbidity threshold (L, M, H) 1.4” value was “M (moderate solubility if the threshold concentration is 31.3 μM to 250 μM)”. In data set [2], this molecule gave an IC50 of less than 1 µM.

On to `CCCS(=O)(=O)Nc1ccc(F)c(C(=O)c2c[nH]c3ncc(-c4ccc(OCCCN5CCOCC5)nc4)cc23)c1F` [P-2236, Propane-1-sulfonic acid (2,4-difluoro-3-{5-[6-(3-morpholin-4-yl-propoxy)-pyridin-3-yl]-1H-pyrrolo[2,3-b]pyridine-3-carbonyl}-phenyl)-amide], for which the IC50 at CYP2C9 is less than 5 µM. Further, in data set [1], the “turbidity threshold (L, M, H) 7.4” value was “L (low solubility if the threshold concentration is <31.3 04)”; the “turbidity threshold (L, M, H) 4.5” value is “M (moderate solubility if the threshold concentration is 31.3 μM to 250 μM)”; the “turbidity threshold (L, M, H) 6.8” value is “L (low solubility if the threshold concentration is <31.3 04)”; the “turbidity threshold (L, M, H) 1.4” value is reported as “M (moderate solubility if the threshold concentration is 31.3 μM to 250 μM)”. Further, the IC50 in data set [2] is less than 0.1 µM.

For `COc1ccnc2[nH]cc(C(=O)c3c(F)ccc(NS(=O)(=O)c4cc(F)ccc4F)c3F)c12` [P-2022, N-[2,4-Difluoro-3-(4-methoxy-1H-pyrrolo[2,3-b]pyridine-3-carbonyl)-phenyl]-2,5-difluoro-benzenesulfonamide], the concentration for half-maximal inhibition (IC50) on CYP2C9 lay in the range of 5 to 10 µM. In data set [1], the “turbidity threshold (L, M, H) 7.4” value was “H (high solubility if the threshold concentration is >250 μM)”; the “turbidity threshold (L, M, H) 4.5” value is reported as “M (moderate solubility if the threshold concentration is 31.3 μM to 250 μM)”; the “turbidity threshold (L, M, H) 6.8” value is on record as “M (moderate solubility if the threshold concentration is 31.3 μM to 250 μM)”; the “turbidity threshold (L, M, H) 1.4” value is “H (high solubility if the threshold concentration is >250 μM)”. In data set [2], the IC50 is less than 5 µM.

Turning to `CCCS(=O)(=O)Nc1ccc(F)c(C(=O)c2c[nH]c3ncc(-c4ccc(S(=O)(=O)N5CCOCC5)cc4)cc23)c1F` [P-2166, Propane-1-sulfonic acid (2,4-difluoro-3-{5-[4-(morpholine-4-sulfonyl)-phenyl]-1H-pyrrolo[2,3-b]pyridine-3-carbonyl}-phenyl)-amide], the IC50 at CYP2C9 is more than 10 µM. Moreover, in data set [1], the “turbidity threshold (L, M, H) 7.4” value is on record as “L (low solubility if the threshold concentration is <31.3 04)”; the “turbidity threshold (L, M, H) 4.5” value is given as “L (low solubility if the threshold concentration is <31.3 04)”; the “turbidity threshold (L, M, H) 6.8” value was “L (low solubility if the threshold concentration is <31.3 04)”; the “turbidity threshold (L, M, H) 1.4” value is given as “L (low solubility if the threshold concentration is <31.3 04)”. For the same molecule, the IC50 in data set [2] was less than 0.1 µM.

For `CCCS(=O)(=O)Nc1ccc(F)c(C(=O)c2c[nH]c3ncc(-c4ccc(C(=O)NCC)nc4)cc23)c1F` [P-2151, 5-{3-[2,6-Difluoro-3-(propane-1-sulfonylamino)-benzoyl]-1H-pyrrolo[2,3-b]pyridin-5-yl}-pyridine-2-carboxylic acid ethylamide], the IC50 at CYP2C9 was in the range of 5 to 10 µM. Also, in data set [1], the “turbidity threshold (L, M, H) 7.4” value is recorded as “L (low solubility if the threshold concentration is <31.3 04)”; the “turbidity threshold (L, M, H) 4.5” value was “L (low solubility if the threshold concentration is <31.3 04)”; the “turbidity threshold (L, M, H) 6.8” value is given as “L (low solubility if the threshold concentration is <31.3 04)”; the “turbidity threshold (L, M, H) 1.4” value was “L (low solubility if the threshold concentration is <31.3 04)”. This molecule also returned an IC50 in data set [2] of less than 1 µM.

For `Cc1cnc2[nH]cc(C(=O)c3c(F)ccc(NS(=O)(=O)c4c(F)cccc4F)c3F)c2c1` [P-2024, N-[2,4-Difluoro-3-(5-methyl-1H-pyrrolo[2,3-b]pyridine-3-carbonyl)-phenyl]-2,6-difluoro-benzenesulfonamide], the IC50 on CYP2C9 is more than 10 µM. In data set [1], the “turbidity threshold (L, M, H) 7.4” value is “M (moderate solubility if the threshold concentration is 31.3 μM to 250 μM)”; the “turbidity threshold (L, M, H) 4.5” value is “L (low solubility if the threshold concentration is <31.3 04)”; the “turbidity threshold (L, M, H) 6.8” value is on record as “M (moderate solubility if the threshold concentration is 31.3 μM to 250 μM)”; the “turbidity threshold (L, M, H) 1.4” value is “M (moderate solubility if the threshold concentration is 31.3 μM to 250 μM)”. Moreover, in data set [2], the IC50 is less than 5 µM.

For the molecule `CCCS(=O)(=O)Nc1ccc(F)c(C(=O)c2c[nH]c3ncc(-c4ccc(S(C)(=O)=O)cc4)cc23)c1F` [P-2183, Propane-1-sulfonic acid {2,4-difluoro-3-[5-(4-methanesulfonyl-phenyl)-1H-pyrrolo[2,3-b]pyridine-3-carbonyl]-phenyl}-amide], on CYP2C9, the IC50 fell in the range of 5 to 10 µM. In addition, in data set [1], the “turbidity threshold (L, M, H) 7.4” value is given as “L (low solubility if the threshold concentration is <31.3 04)”; the “turbidity threshold (L, M, H) 4.5” value is listed as “L (low solubility if the threshold concentration is <31.3 04)”; the “turbidity threshold (L, M, H) 6.8” value is “L (low solubility if the threshold concentration is <31.3 04)”; the “turbidity threshold (L, M, H) 1.4” value was “L (low solubility if the threshold concentration is <31.3 04)”. In data set [2], this molecule had an IC50 of less than 0.1 µM.

Turning to `Cc1cnc2[nH]cc(C(=O)c3c(F)ccc(NS(=O)(=O)c4ccccc4F)c3F)c2c1` [P-2014, N-[2,4-Difluoro-3-(5-methyl-1H-pyrrolo[2,3-b]pyridine-3-carbonyl)-phenyl]-2-fluoro-benzenesulfonamide], the IC50 on CYP2C9 was more than 10 µM. Besides, in data set [1], the “turbidity threshold (L, M, H) 7.4” value is reported as “M (moderate solubility if the threshold concentration is 31.3 μM to 250 μM)”; the “turbidity threshold (L, M, H) 4.5” value was “M (moderate solubility if the threshold concentration is 31.3 μM to 250 μM)”; the “turbidity threshold (L, M, H) 6.8” value is recorded as “M (moderate solubility if the threshold concentration is 31.3 μM to 250 μM)”; the “turbidity threshold (L, M, H) 1.4” value is “L (low solubility if the threshold concentration is <31.3 04)”. This molecule also registered an IC50 in data set [2] of less than 5 µM.
